Source: patent US10035760B2, “Inhibitors of human immunodeficiency virus replication” (priority 2013, dated 2018)
Read-outs that look alike come from different tables or passages of the source.

System: recombinant NL4-3 virus (Renilla luciferase) in MT-2 cells
Test: HIV cell culture assay (antiviral activity, luciferase readout in infected MT-2 cells)
Type: cell-based
Conditions: Renilla
Outline: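 EC50 derived via median-effect equation from luciferase activity in MT-2 cells after 4–5 day infection, compound serially diluted. Virus: recombinant NL4-3 with Renilla luciferase replacing part of nef, made in 293T cells.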

[1] = NL43, read-out: Activity, antiviral activity class, recombinant NL4-3 Renilla luciferase virus in MT-2 cells
[2] = NL43, recombinant NL4-3 Renilla luciferase virus in MT-2 cells

| SMILES | EC50 [1] [nM] | EC50 [2] [nM] |
| --- | --- | --- |
| CN(C(=O)[C@H](Cc1ccccc1)NC(=O)NS(=O)(=O)c1ccccc1Cl)c1ccc2c(c1)OC(F)(F)O2 [Example 38, (S)-2-(3-((2-chlorophenyl)sulfonyl)ureido)-N-(2,2-difluorobenzo[d][1,3]dioxol-5-yl)-N-methyl-3-phenylpropanamide] | 100 to 1000 | 310 |
| Cc1ccccc1S(=O)(=O)NC(=O)N[C@@H](Cc1ccccc1Cl)C(=O)N(C)c1ccc2c(c1)OCO2 [Example 54, (S)—N-(benzo[d][1,3]dioxol-5-yl)-3-(2-chlorophenyl)-N-methyl-2-(3-(o-tolylsulfonyl)ureido)propanamide] | 100 to 1000 |  |
| COC(=O)c1ccccc1S(=O)(=O)NC(=O)N[C@@H](Cc1ccccc1)C(=O)N(C)c1ccc2c(c1)OCO2 [Example 23, (S)-methyl 2-(N-((1-(benzo[d][1,3]dioxol-5-yl(methyl)amino)-1-oxo-3-phenylpropan-2-yl)carbamoyl)sulfamoyl)benzoate] | 1000 to 10000 |  |
| CN(C(=O)[C@H](Cc1ccccc1)NC(=O)NS(=O)(=O)c1ccccc1)c1cccc(F)c1 [Example 93] | 1000 to 10000 | 1590 |
| Cc1ccccc1S(=O)(=O)NC(=O)N[C@@H](Cc1ccc(Cl)c(Cl)c1)C(=O)N(C)c1ccc2c(c1)OCO2 [Example 59, (S)—N-(benzo[d][1,3]dioxol-5-yl)-3-(3,4-dichlorophenyl)-N-methyl-2-(3-(o-tolylsulfonyl)ureido)propanamide] | 1000 to 10000 | 1040 |
| Cc1ccccc1S(=O)(=O)NC(=O)N[C@@H](Cc1cc(F)cc(F)c1)C(=O)N(C)c1ccc2cc[nH]c(=O)c2c1 [Example CA-103, (S)-3-(3,5-difluorophenyl)-N-methyl-N-(1-oxo-1,2-dihydroisoquinolin-7-yl)-2-(3-(o-tolylsulfonyl)ureido)propanamide] | 1000 to 10000 | 1330 |
| CN(C(=O)[C@H](Cc1ccccc1)NC(=O)NS(=O)(=O)c1cc(Cl)cc(Cl)c1)c1ccc2c(c1)OCO2 [Example 11, (S)—N-(benzo[d][1,3]dioxol-5-yl)-2-(3-((3,5-dichlorophenyl)sulfonyl)ureido)-N-methyl-3-phenylpropanamide] | 100 to 1000 |  |
| Cc1ccccc1S(=O)(=O)NC(=O)N[C@@H](Cc1ccccc1)C(=O)N(C)c1ccc2ncncc2c1 [Example CA-96, (S)—N-methyl-3-phenyl-N-(quinazolin-6-yl)-2-(3-(o-tolylsulfonyl)ureido)propanamide] | 100 to 1000 |  |
| COc1ccc(N(C)C(=O)[C@H](Cc2ccccc2)NC(=O)NS(=O)(=O)c2c(C)n(C)c3ccccc23)cc1 [Example JB-85, (S)-2-(3-((1,2-dimethyl-1H-indol-3-yl)sulfonyl)ureido)-N-(4-methoxyphenyl)-N-methyl-3-phenylpropanamide] | 100 to 1000 |  |
| CN(C(=O)[C@H](Cc1ccccc1)NC(=O)NS(=O)(=O)c1ccccc1F)c1ccc2c(c1)OC(F)(F)O2 [Example 34, (S)—N-(2,2-difluorobenzo[d][1,3]dioxol-5-yl)-2-(3-((2-fluorophenyl)sulfonyl)ureido)-N-methyl-3-phenylpropanamide] | 100 to 1000 |  |
| Cc1ccccc1C[C@H](NC(=O)NS(=O)(=O)c1ccccc1C)C(=O)N(C)c1ccc2c(c1)OCO2 [Example 53, (S)—N-(benzo[d][1,3]dioxol-5-yl)-N-methyl-3-(o-tolyl)-2-(3-(o-tolylsulfonyl)ureido)propanamide] | 100 to 1000 |  |
| CN(C(=O)[C@H](Cc1ccccc1)NC(=O)NS(=O)(=O)c1ccccc1-c1ccc(C(N)=O)cc1)c1ccc2c(c1)OCO2 [Example 131, (S)-2′-(N-((1-(benzo[d][1,3]dioxol-5-yl(methyl)amino)-1-oxo-3-phenylpropan-2-yl)carbamoyl)sulfamoyl)-[1,1′-biphenyl]-4-carboxamide] | 10000 to 100000 |  |
| CN(C(=O)[C@H](Cc1ccccc1)NC(=O)NS(=O)(=O)c1cc(Br)ccc1Br)c1ccc2c(c1)OCO2 [Example 12, (S)—N-(benzo[d][1,3]dioxol-5-yl)-2-(3-((2,5-dibromophenyl)sulfonyl)ureido)-N-methyl-3-phenylpropanamide] | < 100 |  |
